Results on one compound are retold here after article PMC8067507, “Aryl Urea Based Scaffolds for Multitarget Drug Discovery in Anticancer Immunotherapies” (Pharmaceuticals, 2021).

For one test, the system named is HMEC-1 cells. The test can be described thus: Tube formation inhibition assay. Format: cell-based, human. Particulars: HMEC-1 on Matrigel, 20 h incubation; average of three experiments. Here is the method:
HT-29, MCF-7, HeLa, A549 and HEK-293 cell lines were maintained in Dulbecco’s modified Eagle’s medium (DMEM) containing glucose (1 g/L), glutamine (2 mM), penicillin (50 μg/mL), streptomycin (50 μg/mL), and amphotericin B (1.25 μg/mL), supplemented with 10% FBS. HMEC-1 cell line was maintained in Dulbecco’s modified Eagle’s medium (DMEM)/low glucose containing glutamine (2 mM), penicillin (50 μg/mL), streptomycin (50 μg/mL), and amphotericin B (1.25 μg/mL), supplemented with 10% FBS. For the development of tube formation assays in Matrigel, HMEC-1 cells were cultured in EGM-2MV Medium supplemented with EGM-2MV SingleQuots.
Wells of an IBIDI μ-slide angiogenesis (IBIDI, Martinsried, Germany) were coated with 12 μL of Matrigel® (10 mg/mL, BD Biosciences) at 4 °C. After gelatinization at 37 °C for 30 min, HMEC-1 cells were seeded at 2 × 10^4 cells/well in 35 μL of culture medium on top of the Matrigel and were incubated 30 min at 37 °C while are attached. Then, compounds were added dissolved in 35 μL of culture medium and after 20 h of incubation at 37 °C, tube destruction was evaluated.

The target of another test is PD-L1 (Homo sapiens, UniProt Q9NZQ7). Nature of the test: PD-L1 quantification by flow cytometry in HT-29. Format: cell-based. Particulars: HT-29, 10 μM, 24 h, referred to control (DMSO). Here is the method:
(§1) We evaluated the effect of the selected compounds on PD-L1 and on c-Myc proteins by flow cytometry after 24 h treatment at 10 μM concentration of compounds. Both, PD-L1 and c-Myc were relatively determined using DMSO treated cells as a negative control and BMS-8 as a positive one.
(§2) For the detection of total PD-L1 and c-Myc, cancer cells were seeded (3 × 10^5 cells/well) in 6-well plates and were incubated with the corresponding compounds for 24 h. Then they were collected, fixed, treated with 0.5% Triton^TM X-100 and stained with Alexa Fluor® 647 Rabbit monoclonal Anti-PD-L1 (ab215251) and FITC Rabbit monoclonal anti-c-Myc (ab223913).
(§3) We also checked results performing ELISA tests. For ELISA tests, lysates were collected, protein quantification was carried out by Bradford test and, then, PD-L1 and c-Myc were quantified using Human PD-L1 ELISA Kit 28-8 (ab214565) and c-Myc (Total) Human ELISA Kit (KHO2041), respectively, according to the manufacturer’s instructions.

A further test concerns c-Myc. Nature of the test: c-Myc quantification by flow cytometry in HT-29. The class given is cell-based, human. Particulars: HT-29, 10 μM, 24 h, referred to control (DMSO). Here is the method: as §1, §2, §3
(A flow cytometer gives signals particle by particle.)

The test system of the next test is Jurkat T cells. The test can be described thus: Jurkat T cell proliferation and population distribution in co-cultures with HT-29. To be noted: co-cultured with HT-29, 10 μM, 24 h. The class given is cell-based, human. An excerpt: We also determine Jurkat T cell proliferation in those co-cultures from the corresponding media by flow cytometry. […] All samples provided similar population distribution except by those treated with Compound 16, in which an enhancement of size and complexity is observed.
Data provided in Figure 7 show the density of living Jurkat T cells in the treated co-cultures with HT-29. The graphics include cell distribution population by size and complexity in each case.
In 12-well plates, 10^5 HT-29 cells per well were seeded and incubated for 24 h with cell culture medium supplemented with IFN-γ (10 ng/mL; human, Invitrogen®) then medium was change by one containing 4 × 10^5 Jurkat T cells per well and 10 μM of the corresponding compound or DMSO for the control. After 24 h of incubation, supernatants were collected to determine Jurkat T cell living cells and, on the other hand, HT-29 cells were collected with trypsin. Both types of suspension cells were counted with the Neubauer chamber and trypan blue and also by flow cytometry.

Another test addresses VEGFR-2 (Homo sapiens, UniProt P35968). The test can be described thus: VEGFR-2 quantification by flow cytometry in HT-29. Format: cell-based. The arrangement: Both membrane and total VEGFR-2 were relatively determined using dimethyl sulfoxide (DMSO) treated cells as a negative control; endogenous in cells; host or cells: HT-29 (colon adenocarcinoma) and HMEC-1 (human microvascular endothelial cells). Particulars: 24 h.

Where [1] appears, read: HT-29, 10 µM, relative to DMSO control.

Structures are written as SMILES.

Chain of VEGFR-2 (P35968 20-1356): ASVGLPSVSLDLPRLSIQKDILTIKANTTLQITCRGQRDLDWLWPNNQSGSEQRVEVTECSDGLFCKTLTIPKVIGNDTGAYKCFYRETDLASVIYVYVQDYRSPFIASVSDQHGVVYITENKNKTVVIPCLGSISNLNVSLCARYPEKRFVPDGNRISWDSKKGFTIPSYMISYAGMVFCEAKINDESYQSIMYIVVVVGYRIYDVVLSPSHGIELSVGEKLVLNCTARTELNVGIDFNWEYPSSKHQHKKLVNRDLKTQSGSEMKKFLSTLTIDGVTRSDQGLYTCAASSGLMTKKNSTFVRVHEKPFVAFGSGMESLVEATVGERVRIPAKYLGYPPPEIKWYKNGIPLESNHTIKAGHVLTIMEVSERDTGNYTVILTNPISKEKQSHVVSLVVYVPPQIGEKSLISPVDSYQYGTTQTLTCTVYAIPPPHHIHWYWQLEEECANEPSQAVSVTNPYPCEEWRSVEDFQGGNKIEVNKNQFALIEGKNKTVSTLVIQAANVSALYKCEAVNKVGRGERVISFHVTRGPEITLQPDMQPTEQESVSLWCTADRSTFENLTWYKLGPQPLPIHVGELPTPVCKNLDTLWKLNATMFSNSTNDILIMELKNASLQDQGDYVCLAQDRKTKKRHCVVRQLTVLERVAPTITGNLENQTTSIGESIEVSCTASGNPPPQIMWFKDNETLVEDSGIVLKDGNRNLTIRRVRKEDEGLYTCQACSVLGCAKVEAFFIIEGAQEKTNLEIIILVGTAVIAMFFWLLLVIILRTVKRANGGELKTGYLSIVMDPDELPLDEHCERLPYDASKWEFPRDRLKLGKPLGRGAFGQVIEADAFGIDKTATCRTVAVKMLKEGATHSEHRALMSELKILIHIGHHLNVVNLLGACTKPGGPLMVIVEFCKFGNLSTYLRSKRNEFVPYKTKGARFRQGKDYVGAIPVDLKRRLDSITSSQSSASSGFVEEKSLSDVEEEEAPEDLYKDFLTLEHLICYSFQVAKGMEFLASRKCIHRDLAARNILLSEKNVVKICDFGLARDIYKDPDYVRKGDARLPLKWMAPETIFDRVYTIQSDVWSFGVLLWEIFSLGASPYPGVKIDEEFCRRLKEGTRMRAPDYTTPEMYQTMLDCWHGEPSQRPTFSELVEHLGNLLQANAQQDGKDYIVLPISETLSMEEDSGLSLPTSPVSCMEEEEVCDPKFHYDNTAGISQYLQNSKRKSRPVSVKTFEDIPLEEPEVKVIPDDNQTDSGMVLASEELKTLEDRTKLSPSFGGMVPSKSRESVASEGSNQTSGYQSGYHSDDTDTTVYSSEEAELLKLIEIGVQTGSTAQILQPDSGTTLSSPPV
Chain of PD-L1 (Q9NZQ7 19-290): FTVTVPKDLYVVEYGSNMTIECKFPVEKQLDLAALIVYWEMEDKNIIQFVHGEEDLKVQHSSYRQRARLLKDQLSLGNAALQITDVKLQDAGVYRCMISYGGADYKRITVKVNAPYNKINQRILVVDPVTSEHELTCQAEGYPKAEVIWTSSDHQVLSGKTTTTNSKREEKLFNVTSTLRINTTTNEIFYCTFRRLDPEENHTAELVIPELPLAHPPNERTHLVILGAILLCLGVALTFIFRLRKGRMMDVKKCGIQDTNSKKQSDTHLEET
Protocol for VEGFR-2: We performed the study on both a HT-29 cancer cell line and a human microvessel endothelial cell line (HMEC-1). […] The effect of these selected derivatives on VEGFR-2, on HT-29 tumor cell line and on human microvessel endothelial cells (HMEC) was determined by flow cytometry technique. […] For these assays, cells were incubated for 24 h in the presence of the corresponding compounds at 10 µM concentration.

One may read the inhibition as the change of the read-out against control, counted positive when it falls. `COc1ccc(/C=C\c2cccc(NC(=O)Nc3ccc(Br)cc3)c2)cc1` [Compound 16]: the “Minimum Active Conc. (inhibition of tube formation)” value in the test with HMEC-1 cells is listed as 10 µM. Moreover, at PD-L1, the “PD-L1 (%) relative expression” value stood at 17 ± 5%. Moreover, the “c-Myc (%) relative expression” value with c-Myc is 41 ± 10%. Also, in the test with Jurkat T cells, the “effect on Jurkat T cell proliferation” value was “hardly affect proliferation of T cell”; the “effect on T cell size and complexity (morphology)” value is “an increase on their size and complexity”. The inhibition at 10 µM on VEGFR-2 (10 µM, statement for HT-29 and HMEC-1, read-out: inhibition of both membrane and total VEGFR-2) was more than 50%. Also, on VEGFR-2 (setting [1]), the “Membrane VEGFR-2 (%)” value was 39 ± 9% and the “Total VEGFR-2 (%)” value stood at 55 ± 10%.
